Laboratory results reported in PubChem BioAssay AID1068 (Emory University Molecular Libraries Screening Center, 2008).
Active and inactive are the calls of the source.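 The calls were made as follows: active = IC50 of 15 µM or lower, and residual activity at the IC50 concentration no higher than 60%; inactive = the rest.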

Molecular target: Ubiquitin carboxyl-terminal hydrolase BAP1 (Homo sapiens) (UniProt Q92560)
Test: BAP1 inhibitor potency with two substrates, dose response, biochemical, Ub-AMC versus Ub-rhodamine substrates (AID 1068)
Details: recombinant BAP1, Ub-rhodamine hydrolysis fluorescence
[1] = measured here: Ub-AMC substrate assay

Ubiquitin carboxyl-terminal hydrolase BAP1 (Homo sapiens), sequence (Q92560 whole entry, looked up): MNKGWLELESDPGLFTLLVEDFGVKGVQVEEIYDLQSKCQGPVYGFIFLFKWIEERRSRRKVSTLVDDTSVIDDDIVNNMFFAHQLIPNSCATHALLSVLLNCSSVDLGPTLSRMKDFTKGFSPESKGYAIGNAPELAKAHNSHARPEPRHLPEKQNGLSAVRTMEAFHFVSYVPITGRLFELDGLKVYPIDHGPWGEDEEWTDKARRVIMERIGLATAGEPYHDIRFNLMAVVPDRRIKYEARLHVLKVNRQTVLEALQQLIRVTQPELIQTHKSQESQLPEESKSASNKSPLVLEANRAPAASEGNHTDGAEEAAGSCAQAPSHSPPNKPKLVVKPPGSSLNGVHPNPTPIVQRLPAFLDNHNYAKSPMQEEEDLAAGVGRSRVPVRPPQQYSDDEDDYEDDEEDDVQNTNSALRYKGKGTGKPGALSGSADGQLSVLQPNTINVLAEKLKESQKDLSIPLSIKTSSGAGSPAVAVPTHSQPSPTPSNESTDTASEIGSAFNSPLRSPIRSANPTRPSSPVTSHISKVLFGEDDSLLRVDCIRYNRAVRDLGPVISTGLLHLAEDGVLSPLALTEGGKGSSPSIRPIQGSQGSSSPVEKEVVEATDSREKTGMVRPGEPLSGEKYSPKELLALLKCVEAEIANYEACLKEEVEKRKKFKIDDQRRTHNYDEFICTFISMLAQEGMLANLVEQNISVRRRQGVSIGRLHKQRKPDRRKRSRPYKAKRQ

Compound	IC50	IC50 [1] [µM]	outcome
O=C(O)c1ccccc1-c1nc(-c2ccc(Cl)cc2)no1	inactive	1.31	–
COc1ccccc1NC(=O)c1ccccc1-c1nc(-c2ccc(Cl)cc2)no1	inactive	40.1	–
COc1cc(-c2nnc(SCC(=O)Nc3sc(C)c(C)c3C#N)o2)cc(OC)c1OC	–	2.32	inactive
COC(=O)c1ccc(NC(=O)CSc2nc(C)cc(=O)[nH]2)cc1	–	> 100	inactive
CCCc1cc(=O)[nH]c(SCC(=O)Nc2ccc(C(=O)OC)cc2)n1	–	> 100	inactive
O=C(NCc1ccco1)c1cc2nc(-c3ccc4c(c3)OCO4)cc(C(F)(F)F)n2n1	inactive	> 100	–
O=C(Nc1cccc(O)c1)c1ccccc1-c1nc(-c2cccc(Cl)c2)no1	inactive	27.1	–
Cc1cccc2cc(C(c3nnnn3C(C)(C)C)N3CCNCC3)c(=O)[nH]c12 (stereo not drawn)	inactive	> 100	–
O=C(NCc1ccccn1)c1cc2nc(-c3ccc4c(c3)OCO4)cc(C(F)(F)F)n2n1	–	> 100	inactive
Cc1cccc2cc(C(c3nnnn3C(C)(C)C)N3CCN(C(=O)c4ccco4)CC3)c(=O)[nH]c12 (stereo not drawn)	< 0.78 µM (inactive)	55.7	–
Cc1cccc2cc(C(C#N)N3CCN(C(=O)OC(C)(C)C)CC3)c(=O)[nH]c12 (stereo not drawn)	inactive	> 100	–
O=C(O)c1ccccc1-c1nc(-c2cccc(Cl)c2)no1	> 100 µM (inactive)	58.8	–
Cc1cccc2cc(C(c3nnnn3C(C)(C)C)N3CCN(C(=O)OC(C)(C)C)CC3)c(=O)[nH]c12 (stereo not drawn)	> 100 µM (inactive)	> 100	–
Cc1oc(NC(=O)CSc2n[nH]c(-c3ccc(F)cc3)n2)c(C#N)c1C	> 100 µM (inactive)	46.5	–
COc1cccc(NC(=O)c2ccccc2-c2nc(-c3ccc(Cl)cc3)no2)c1	inactive	39.9	–
CCc1ccc(NC(=O)CSc2nc(C)cc(=O)[nH]2)cc1	–	5.62	inactive
Cc1cccc2cc(C(C#N)N3CCNCC3)c(=O)[nH]c12 (stereo not drawn)	inactive	1.55	–
O=C(NCc1cccs1)c1cc2nc(-c3ccc4c(c3)OCO4)cc(C(F)(F)F)n2n1	inactive	44.7	–
COc1cccc(NC(=O)c2ccccc2-c2nc(-c3cccc(Cl)c3)no2)c1	inactive	37.5	–
CCc1cc(=O)[nH]c(SCC(=O)Nc2ccc(C(=O)OC)cc2)n1	–	> 100	inactive
Cc1cccc2cc(C(c3nn[nH]n3)N3CCN(C(=O)OC(C)(C)C)CC3)c(=O)[nH]c12 (stereo not drawn)	> 100 µM (inactive)	38.9	–
Cc1sc(NC(=O)CSc2nc3ncnc(N)c3[nH]2)c(C#N)c1C	–	> 100	inactive

The remaining lines, values ahead:

IC50	IC50 [1] [µM]	outcome	Compound
12.5 µM	32.1	–	Cc1sc(NC(=O)CSc2nnc(-c3ccccc3)o2)c(C#N)c1-c1ccc(F)cc1
10 µM	37	–	Cc1ccc(-c2c(C)sc(NC(=O)CSc3nnc(-c4ccc(F)cc4)o3)c2C#N)cc1C
inactive	99.7	–	Cc1sc(NC(=O)CSc2nnc(-c3ccc(F)cc3)o2)c(C#N)c1C
9.11 µM	15.3	–	Cc1sc(NC(=O)CSc2n[nH]c(-c3ccc(O)cc3)n2)c(C#N)c1-c1ccc(F)cc1
9.54 µM	37.4	–	Cc1sc(NC(=O)CSc2nnc(-c3ccc(Cl)cc3)o2)c(C#N)c1C
inactive	41.7	–	N#Cc1c(NC(=O)CSc2nnc(-c3ccc(F)cc3)o2)sc2c1CCCC2
inactive	> 100	–	N#Cc1c(NC(=O)CSc2nnc(-c3ccc(Cl)cc3)o2)sc2c1CCCC2
13.5 µM	32.6	–	Cc1ccc(-c2c(C)sc(NC(=O)CSc3nnc(-c4ccc(Cl)cc4)o3)c2C#N)cc1C
inactive	47.8	–	Cc1sc(NC(=O)CSc2nnc(-c3ccccc3)o2)c(C#N)c1C
5.51 µM	> 100	–	Cc1sc(NC(=O)CSc2nnc(-c3ccc(Cl)cc3)o2)c(C#N)c1-c1ccc(F)cc1
inactive	69.8	–	Cc1ccc(-c2c(C)sc(NC(=O)CSc3nnc(-c4ccccc4)o3)c2C#N)cc1C
inactive	39.6	–	COc1cc(-c2nnc(SCC(=O)Nc3sc(C)c(-c4ccc(F)cc4)c3C#N)o2)cc(OC)c1OC
